Measurements from ChEMBL document CHEMBL5046281, “N-Aryl Mercaptopropionamides as Broad-Spectrum Inhibitors of Metallo-β-Lactamases” (J Med Chem, 2022).
In brackets after ≈: the same amount, converted by molar mass. Activity calls are given as the source filed them. The rule behind the calls is not given here.

What was measured:
[1] = Inhibition of Escherichia coli NDM-1 using fluorocillin as substrate incubated for 30 mins by fluorescence based assay
[2] = Inhibition of Escherichia coli IMP-7 using fluorocillin as substrate incubated for 30 mins by fluorescence based assay
[3] = biological target: BlaVIM-1 (Escherichia coli, UniProt Q8GDC1); assay: Inhibition of Escherichia coli VIM-1 using fluorocillin as substrate incubated for 30 mins by fluorescence based assay
[4] = Lipophilicity, log D of the compound at pH 7.4 by HPLC-MS analysis; assay type: physicochemical; details: buffer
[5] = tested on: Pseudomonas aeruginosa; assay: Inhibition of Pseudomonas aeruginosa quorum sensing system LasB at 100 uM
[6] = biological target: T1, Interstitial collagenase (Homo sapiens) (UniProt P03956); assay: Inhibition of human MMP-1 at 100 uM relative to control
T1 sequence (whole entry): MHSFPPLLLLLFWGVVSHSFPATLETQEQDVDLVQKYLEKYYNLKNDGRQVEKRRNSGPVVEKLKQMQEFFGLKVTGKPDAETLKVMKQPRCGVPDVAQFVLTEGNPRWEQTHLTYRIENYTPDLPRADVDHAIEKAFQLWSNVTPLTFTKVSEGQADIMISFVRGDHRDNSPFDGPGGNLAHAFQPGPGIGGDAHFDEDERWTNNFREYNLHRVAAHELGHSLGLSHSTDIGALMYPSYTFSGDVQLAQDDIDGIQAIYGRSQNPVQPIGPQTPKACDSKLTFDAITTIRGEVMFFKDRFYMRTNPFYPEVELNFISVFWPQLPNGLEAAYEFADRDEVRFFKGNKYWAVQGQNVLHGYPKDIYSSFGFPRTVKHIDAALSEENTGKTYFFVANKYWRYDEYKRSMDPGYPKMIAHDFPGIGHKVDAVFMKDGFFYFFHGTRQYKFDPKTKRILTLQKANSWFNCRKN

[7] = biological target: T2, 72 kDa type IV collagenase (Homo sapiens, UniProt P08253); assay: Inhibition of human MMP-2 at 100 uM relative to control
Target sequence in this assay (P08253 110-660 limits assumed): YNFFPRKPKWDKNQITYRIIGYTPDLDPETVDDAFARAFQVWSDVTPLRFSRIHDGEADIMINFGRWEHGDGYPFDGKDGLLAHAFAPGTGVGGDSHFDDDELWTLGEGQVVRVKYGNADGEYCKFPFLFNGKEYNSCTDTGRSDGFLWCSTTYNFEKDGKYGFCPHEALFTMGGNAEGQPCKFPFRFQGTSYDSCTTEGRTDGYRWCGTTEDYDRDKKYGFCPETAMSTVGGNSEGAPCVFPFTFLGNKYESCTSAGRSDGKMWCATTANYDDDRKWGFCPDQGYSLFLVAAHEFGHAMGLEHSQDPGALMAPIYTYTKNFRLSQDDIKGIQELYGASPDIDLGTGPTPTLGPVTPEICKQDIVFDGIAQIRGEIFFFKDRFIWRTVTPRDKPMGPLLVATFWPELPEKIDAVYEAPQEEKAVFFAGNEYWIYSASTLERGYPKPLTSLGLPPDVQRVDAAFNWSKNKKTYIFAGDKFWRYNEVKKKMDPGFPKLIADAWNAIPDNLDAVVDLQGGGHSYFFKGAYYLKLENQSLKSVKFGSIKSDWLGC

[8] = biological target: Stromelysin-1 (Homo sapiens) (UniProt P08254); assay: Inhibition of human MMP-3 at 100 uM relative to control
[9] = biological target: T3, Matrilysin (Homo sapiens) (UniProt P09237); assay: Inhibition of human MMP-7 at 100 uM relative to control
T3 sequence (whole entry): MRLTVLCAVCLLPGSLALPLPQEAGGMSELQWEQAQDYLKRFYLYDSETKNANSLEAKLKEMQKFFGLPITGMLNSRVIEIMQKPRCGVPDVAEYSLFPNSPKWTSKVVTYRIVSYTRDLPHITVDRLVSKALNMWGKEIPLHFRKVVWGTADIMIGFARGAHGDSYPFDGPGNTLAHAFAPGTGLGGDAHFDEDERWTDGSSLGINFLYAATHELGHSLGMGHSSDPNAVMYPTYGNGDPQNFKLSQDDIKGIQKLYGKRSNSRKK

[10] = biological target: Neutrophil collagenase (Homo sapiens) (UniProt P22894); assay: Inhibition of human MMP-8 at 100 uM relative to control
[11] = biological target: T4, Matrix metalloproteinase-14 (Homo sapiens, UniProt P50281); assay: Inhibition of human MMP-14 at 100 uM relative to control
[12] = biological target: Disintegrin and metalloproteinase domain-containing protein 17 (Homo sapiens) (UniProt P78536); assay: Inhibition of human TACE at 100 uM relative to control
[13] = biological target: T4, Matrix metalloproteinase-14; assay: Inhibition of human MMP-14
[14] = tested on: Escherichia coli; assay: Antibacterial activity against NDM-1 expressing Escherichia coli isolates assessed as inhibition of bacterial growth by microdilution method; assay type: functional, organism-based
[15] = tested on: Escherichia coli; assay: Antibacterial activity against VIM-1 expressing Escherichia coli isolates assessed as inhibition of bacterial growth by microdilution method; assay type: functional, organism-based
[16] = tested on: Escherichia coli; assay: Antibacterial activity against IMP-1 expressing Escherichia coli isolates assessed as inhibition of bacterial growth by microdilution method; assay type: functional, organism-based
[17] = tested on: Pseudomonas aeruginosa; assay: Antibacterial activity against VIM-2 expressing Pseudomonas aeruginosa isolates assessed as inhibition of bacterial growth by microdilution method; assay type: functional, organism-based
[18] = tested on: HepG2; assay: Cytotoxicity against human HepG2 cells assessed as reduction in cell viability at 100 uM relative to control; assay type: toxicity, cell-based; details: hepg2, 100 µM
[19] = tested on: HEK293; assay: Cytotoxicity against human HEK293 cells assessed as reduction in cell viability at 100 uM relative to control; assay type: toxicity, cell-based; details: hek293, 100 µM
[20] = tested on: A549; assay: Cytotoxicity against human A549 cells assessed as reduction in cell viability at 100 uM relative to control; assay type: toxicity, cell-based; details: a549, 100 µM
[21] = Toxicity in zebrafish embryo assessed as maximum tolerated concentration measured up to 120 hrs; parameters: species or system Danio rerio; details: in vivo, read-out: MTC
[22] = biological target: T2, 72 kDa type IV collagenase; assay: Inhibition of human MMP-2
Target sequence in this assay (P08253 whole entry): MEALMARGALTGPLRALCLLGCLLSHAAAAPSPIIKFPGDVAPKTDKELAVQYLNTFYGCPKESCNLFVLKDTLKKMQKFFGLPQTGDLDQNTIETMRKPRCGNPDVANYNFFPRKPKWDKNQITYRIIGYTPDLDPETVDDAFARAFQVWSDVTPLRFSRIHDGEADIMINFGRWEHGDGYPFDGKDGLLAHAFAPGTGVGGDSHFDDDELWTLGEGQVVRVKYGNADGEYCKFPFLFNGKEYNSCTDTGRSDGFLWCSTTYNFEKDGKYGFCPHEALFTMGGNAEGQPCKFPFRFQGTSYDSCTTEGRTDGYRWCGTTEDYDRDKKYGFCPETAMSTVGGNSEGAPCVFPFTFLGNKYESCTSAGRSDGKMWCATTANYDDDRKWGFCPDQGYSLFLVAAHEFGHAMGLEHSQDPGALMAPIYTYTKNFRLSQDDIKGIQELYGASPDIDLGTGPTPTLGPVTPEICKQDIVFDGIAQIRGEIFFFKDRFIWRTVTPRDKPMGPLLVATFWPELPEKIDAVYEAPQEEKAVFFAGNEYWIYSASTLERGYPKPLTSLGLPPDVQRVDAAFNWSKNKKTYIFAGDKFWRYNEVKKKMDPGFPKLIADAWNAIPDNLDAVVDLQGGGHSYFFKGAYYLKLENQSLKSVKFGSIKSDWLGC

[23] = tested on: Enterobacter cloacae; assay: Antibacterial activity against GIM-1 producing Enterobacter cloacae T2218 clinical isolates assessed as inhibition of bacterial growth by microdilution method; assay type: functional
[24] = tested on: Escherichia coli; assay: Antibacterial activity against NDM-7 producing Escherichia coli T2239 clinical isolates assessed as inhibition of bacterial growth by microdilution method; assay type: functional
[25] = tested on: Klebsiella pneumoniae; assay: Antibacterial activity against NDM-1 producing Klebsiella pneumoniae T2301 clinical isolates assessed as inhibition of bacterial growth by microdilution method; assay type: functional
[26] = tested on: Enterobacter cloacae; assay: Antibacterial activity against NDM-1 producing Enterobacter cloacae T2311 clinical isolates assessed as inhibition of bacterial growth by microdilution method; assay type: functional
[27] = tested on: Serratia marcescens; assay: Antibacterial activity against NDM-1 producing Serratia marcescens T2352 clinical isolates assessed as inhibition of bacterial growth by microdilution method; assay type: functional
[28] = tested on: Escherichia coli; assay: Antibacterial activity against NDM-5 producing Escherichia coli T2351 clinical isolates assessed as inhibition of bacterial growth by microdilution method
[29] = tested on: Pseudomonas aeruginosa; assay: Antibacterial activity against VIM-1 producing Pseudomonas aeruginosa T2357 clinical isolates assessed as inhibition of bacterial growth by microdilution method; assay type: functional
[30] = tested on: Enterobacter cloacae; assay: Antibacterial activity against VIM-1 producing Enterobacter cloacae T2353 clinical isolates assessed as inhibition of bacterial growth by microdilution method; assay type: functional
[31] = tested on: Pseudomonas aeruginosa; assay: Antibacterial activity against IMP-1 producing Pseudomonas aeruginosa T2325 clinical isolates assessed as inhibition of bacterial growth by microdilution method
[32] = tested on: Acinetobacter baumannii; assay: Antibacterial activity against OXA-23 producing Acinetobacter baumannii T2434 clinical isolates assessed as inhibition of bacterial growth by microdilution method; assay type: functional
[33] = tested on: Escherichia coli; assay: Antibacterial activity against KPC-2 producing Escherichia coli T2435 clinical isolates assessed as inhibition of bacterial growth by microdilution method; assay type: functional
[34] = tested on: Klebsiella pneumoniae; assay: Antibacterial activity against imipenem-resistant NDM-1-producing Klebsiella pneumoniae T2301 infected in Galleria mellonella larvae assessed as survival rate at 0.12 ug injected via proleg measured after 3 days by Kaplan-Meier method; assay type: functional; details: dose 0.12 µg; time 3 day

Chain of Stromelysin-1 (Homo sapiens) (P08254 100-477 limits assumed): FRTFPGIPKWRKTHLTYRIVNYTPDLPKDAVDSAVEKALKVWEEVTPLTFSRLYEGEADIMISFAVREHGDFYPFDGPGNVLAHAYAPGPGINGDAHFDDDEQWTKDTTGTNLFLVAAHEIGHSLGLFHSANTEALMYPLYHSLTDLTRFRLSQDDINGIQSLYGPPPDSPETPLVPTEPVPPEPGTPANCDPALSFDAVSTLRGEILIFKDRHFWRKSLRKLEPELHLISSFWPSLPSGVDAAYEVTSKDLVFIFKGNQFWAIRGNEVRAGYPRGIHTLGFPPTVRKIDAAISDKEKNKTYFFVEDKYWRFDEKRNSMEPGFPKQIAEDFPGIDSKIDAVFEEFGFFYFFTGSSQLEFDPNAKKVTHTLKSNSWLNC
Chain of Disintegrin and metalloproteinase domain-containing protein 17 (Homo sapiens) (P78536 whole entry, the tested form may be a part): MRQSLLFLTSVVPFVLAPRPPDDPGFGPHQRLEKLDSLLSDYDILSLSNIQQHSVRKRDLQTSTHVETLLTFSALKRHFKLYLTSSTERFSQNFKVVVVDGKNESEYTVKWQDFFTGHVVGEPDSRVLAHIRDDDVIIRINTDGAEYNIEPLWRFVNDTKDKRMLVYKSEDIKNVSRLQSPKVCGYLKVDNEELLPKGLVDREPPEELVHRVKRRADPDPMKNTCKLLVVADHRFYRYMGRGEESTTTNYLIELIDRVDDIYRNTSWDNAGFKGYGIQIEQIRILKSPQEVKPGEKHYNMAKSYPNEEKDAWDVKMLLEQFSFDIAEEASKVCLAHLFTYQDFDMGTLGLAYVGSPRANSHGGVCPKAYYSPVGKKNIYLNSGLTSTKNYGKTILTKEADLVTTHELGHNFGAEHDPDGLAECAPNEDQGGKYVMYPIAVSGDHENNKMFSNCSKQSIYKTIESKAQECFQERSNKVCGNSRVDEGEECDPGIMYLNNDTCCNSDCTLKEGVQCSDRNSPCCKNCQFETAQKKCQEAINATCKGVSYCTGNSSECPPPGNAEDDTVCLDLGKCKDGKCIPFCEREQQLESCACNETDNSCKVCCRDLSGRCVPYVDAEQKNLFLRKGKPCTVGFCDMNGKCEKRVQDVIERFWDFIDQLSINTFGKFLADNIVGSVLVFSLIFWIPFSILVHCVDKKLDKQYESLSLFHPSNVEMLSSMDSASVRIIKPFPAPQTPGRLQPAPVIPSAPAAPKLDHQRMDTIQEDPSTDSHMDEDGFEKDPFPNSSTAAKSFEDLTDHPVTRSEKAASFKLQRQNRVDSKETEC
Chain of Neutrophil collagenase (Homo sapiens) (P22894 101-467 limits assumed): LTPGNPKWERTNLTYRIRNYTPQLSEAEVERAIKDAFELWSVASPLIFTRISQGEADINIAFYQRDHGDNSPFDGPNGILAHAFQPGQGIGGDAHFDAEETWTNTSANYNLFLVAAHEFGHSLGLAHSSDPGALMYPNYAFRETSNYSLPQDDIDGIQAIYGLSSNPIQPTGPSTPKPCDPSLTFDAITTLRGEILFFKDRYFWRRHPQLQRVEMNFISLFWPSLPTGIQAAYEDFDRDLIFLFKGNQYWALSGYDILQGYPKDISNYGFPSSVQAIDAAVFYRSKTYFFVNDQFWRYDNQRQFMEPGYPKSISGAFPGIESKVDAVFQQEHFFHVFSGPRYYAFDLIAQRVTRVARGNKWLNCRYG

| Compound | IC50 [1] | IC50 [2] | IC50 [3] | logD [4] | Activity [14] | Activity [15] | Activity [16] | Activity [17] | other results |
| --- | --- | --- | --- | --- | --- | --- | --- | --- | --- |
| O=C(CCS)Nc1ccc(C(=O)O)cc1 | 1000 nM | > 10000 nM | 600 nM | -1.65 | – | – | – | – | – |
| COC(=O)c1ccc(NC(=O)CCS)cc1 | 2800 nM | 1100 nM | 100 nM | 1.95 | – | – | – | – | inhibition [5]: Active |
| O=C(CCS)Nc1ccccc1C(=O)O | 3400 nM | 4100 nM | 2200 nM | -0.92 | inactive | inactive | inactive | inactive | inhibition [6]: < 10%; inhibition [7]: < 10%; inhibition [8]: 17%; inhibition [9]: 11%; inhibition [10]: < 10%; inhibition [11]: 77%; inhibition [12]: < 10%; IC50 [13]: 12000 nM; Activity [18]: < 10%; Activity [19]: < 10%; Activity [20]: < 10%; MNTC at 120 h [21]: ≥ 150 µM |
| O=C(CCS)Nc1ccccc1O | 2200 nM | 3300 nM | 200 nM | 1.14 | – | – | – | – | – |
| NC(=O)NS(=O)(=O)c1ccc(NC(=O)CCS)cc1 | 8600 nM | 12600 nM | 2000 nM | -1.69 | inactive | inactive | inactive | inactive | inhibition [6]: < 10%; inhibition [7]: 88%; inhibition [8]: < 10%; inhibition [9]: 32%; inhibition [10]: < 10%; inhibition [11]: 73%; inhibition [12]: < 10%; IC50 [22]: 64000 nM; IC50 [13]: 31000 nM; Activity [18]: < 10%; Activity [19]: < 10%; Activity [20]: < 10%; MNTC at 120 h [21]: ≥ 150 µM; inhibition [5]: Active |
| COC(=O)c1ccccc1NC(=O)CCS | 1300 nM | 1000 nM | 10000 nM | 1.95 | – | – | – | – | – |
| CC(=O)c1ccc(NC(=O)CCS)cc1 | 1500 nM | 5500 nM | 400 nM | 1.35 | – | – | – | – | – |
| O=C(CCS)Nc1ccc(Cl)c(Cl)c1 | 1300 nM | 5000 nM | 100 nM | 5.34 | inactive | inactive | inactive | inactive | inhibition [6]: < 10%; inhibition [7]: 14%; inhibition [8]: < 10%; inhibition [9]: < 10%; inhibition [10]: 22%; inhibition [11]: 18%; Activity [18]: < 10%; Activity [19]: < 10%; Activity [20]: < 10%; inhibition [5]: Active |
| O=C(CCS)Nc1ccc(S(=O)(=O)N2CCOCC2)cc1 | 2500 nM | 7100 nM | 1700 nM | 1.52 | – | – | – | – | – |
| CN(C)S(=O)(=O)c1ccc(NC(=O)CCS)cc1 | 2800 nM | 2100 nM | 800 nM | 1.7 | inactive | inactive | inactive | inactive | – |
| CCN(CC)Cc1cccc(NC(=O)CCS)c1 | 6500 nM | 5500 nM | 800 nM | 0.24 | – | – | – | – | – |
| CS(=O)(=O)Nc1cccc(NC(=O)CCS)c1 | 2200 nM | – | 1300 nM | 0.62 | – | – | – | – | – |
| O=C(CCS)Nc1cccc([N+](=O)[O-])c1 | 2500 nM | 2600 nM | 100 nM | 2.21 | – | – | – | – | – |
| CN1CCN(Cc2ccc(NC(=O)CCS)cc2)CC1 | 6400 nM | 5800 nM | 1500 nM | 0.28 | – | – | – | – | – |
| C[C@@H](O)[C@H]1C(=O)N2C(C(=O)O)=C(SCCNC=N)C[C@H]12 [IMIPENEM ANHYDROUS] | – | – | – | – | – | – | – | – | MIC [23]: 2 µg/mL (≈ 6.68 µM); MIC [24]: 32 µg/mL (≈ 107 µM); MIC [25]: 16 µg/mL (≈ 53.4 µM); MIC [26]: 8 µg/mL (≈ 26.7 µM); MIC [27]: 256 µg/mL (≈ 855 µM); MIC [28]: 8 µg/mL (≈ 26.7 µM); MIC [29]: 256 µg/mL (≈ 855 µM); MIC [30]: 4 µg/mL (≈ 13.4 µM); MIC [31]: 16 µg/mL (≈ 53.4 µM); MIC [32]: 32 µg/mL (≈ 107 µM); MIC [33]: 4 µg/mL (≈ 13.4 µM); Activity [34]: <=25% |
| Nc1ccc(NC(=O)CCS)cc1 | 6500 nM | 2100 nM | 500 nM | -0.31 | – | – | – | – | – |
| N=C(N)NS(=O)(=O)c1ccc(NC(=O)CCS)cc1 | 2100 nM | 3300 nM | 500 nM | -0.5 | inactive | inactive | inactive | inactive | inhibition [6]: < 10%; inhibition [7]: < 10%; inhibition [8]: < 10%; inhibition [9]: < 10%; inhibition [10]: < 10%; inhibition [11]: < 10%; inhibition [12]: 32%; Activity [18]: < 10%; Activity [19]: < 10%; Activity [20]: < 10%; MNTC at 120 h [21]: ≥ 150 µM |
| CS(=O)(=O)Nc1ccccc1NC(=O)CCS | 7000 nM | > 10000 nM | 1900 nM | 1.1 | – | – | – | – | – |
| O=C(O)[C@H]1CCCCN1C(=O)C(CS)Cc1ccccc1 (stereo not given in full) | 700 nM | 4600 nM | 900 nM | 0.49 | – | – | – | – | – |
| O=C(CCS)Nc1cccc(O)c1 | 2700 nM | 1400 nM | 100 nM | 0.41 | – | – | – | – | – |
| O=C(CCS)Nc1ccc(O)cc1 | 4000 nM | 3400 nM | 200 nM | 0.32 | – | – | – | – | – |
| O=C(CCS)Nc1cccc(S(=O)(=O)O)c1 | 1300 nM | 3600 nM | 1600 nM | -1.35 | inactive | inactive | inactive | inactive | – |
| NCc1cccc(NC(=O)CCS)c1 | 5500 nM | 5100 nM | 1000 nM | 0.28 | inactive | inactive | inactive | inactive | – |
